Experimental data from US20230011536A1, “MESENCHYMAL STEM CELL DERIVED EXTRACELLULAR VESICLES LOADED WITH AT LEAST ONE PHOTOSENSITIZER AND USES THEREOF FOR THE TREATMENT OF PERITONEAL CARCINOMATOSIS” (priority 2019, published 2023).

Assays:
[1] = tested on: colorectal peritoneal carcinomatosis (CT26); assay: Early effectiveness of PDT in mouse model of colorectal peritoneal carcinomatosis (histology, TUNEL, immunostaining 48 h after illumination); format: in vivo
Procedure: (§1) After 24 h, animals from both groups were anesthetized with isoflurane, a midline laparotomy was performed to allow invasive laser irradiation, and were then irradiated using a 650 nm laser at a fluence of 10 J/cm^2 (100 mW/cm^2 for 100 s). Two irradiations spots were successively realized to allow an illumination of the entire cavity and drops of saline were used to keep the tissue moist. A heating device was used to keep body temperature stable throughout the treatment until the animal was woken up. The peritoneum and the skin were separately sutured immediately after irradiation.
(§2) Treatment injection was made 12 days after IP inoculation of CT26, followed by invasive illumination 24 hours after. Six groups were performed for each experimentation: (i) no treatment, (ii) laser, (iii) free mTHPC, (iv) EVs-mTHPC, (v) free mTHPC+laser, (vi) EVs-mTHPC+laser.
Early effectiveness was evaluated 48 hours after illumination to compare: tumoral necrosis, apoptosis, macrophages invasion, lymphocyte recruitment, vascular damage and proliferative index result according to treatment. Long-term effectiveness consisted on a survival analysis function of the treatment.
For immunohistochemical detection of the chosen markers for tumor tissue, sections were deparaffined and subject to antigen retrieval methods validated for each of the primary antibodies.
Antibody expression for each analysis was evaluated by the mean number of positive cells in 3 randomly chosen areas (×40 magnification) for 10-15 nodes by treatment. Quantitative analysis of immunostaining preparation was performed using the color segmentation ImageJ plugin developed by the Biomedical Imaging Group at the EPFL, Switzerland.
TUNEL assay: Cell apoptosis in tumour was detected by a FragEL DNA fragmentation (TUNEL) detection kit (Sigma, Roche, ref 11684795910). In brief the cryostat section were permeabilized with 0.1% Triton and 0.1% (citrate de sodium) in 10×PBS. The slides were then labeled with a TdT reaction mixture for 60 min and were mounted with a mounting solution containing 4′, 6-diamidino-2-phenylindole (DAPI). The apoptotic cells (green) and cell nucleus (blue) was examined using a fluorescence microscopy. The percentage of apoptotic cells was assessed in 2 randomly fields at 40× magnification. The apoptotic index was calculated with image J.
For image-based quantitative analysis of blood vessels, immunofluorescence detection of CD31 was made after one hour incubation with antiCD31 antibody (BD 553370,1/50) and 45 min incubation with second antibody (Alexa Fluor® 488, ThermoFisher, A11006, dilution 1/200)

[2] = mTHPC biodistribution after intraperitoneal injection, colorectal peritoneal carcinomatosis model (CT26); format: in vivo, mouse; conditions: for mTHPC level in tumor tissue: 0.5 mg/kg mTHPC, mean±SEM
Procedure: All animal experiments were performed in agreement with institutional animal use and care after approval by the local Ethics Committee (registration number for the carcinomatosis model experiment: APAFIS-8617). Six-week-old female BALB/c (provided by Charles River, Arbresle, France and weighing 18 g) and C57BL/6 mice were provided with food and water ad libidum, for colon and ovarian model respectively. The animals were allowed to acclimate to the facility for at least one week before being used for experiments. Colorectal model was induced with an intraperitoneal injection of 5·10^4 CT26 cells resuspended in a volume of 200 μL of physiological saline per inoculum. […] Between the days of IP injection and sacrifice, the wellbeing of the mice was checked twice a week through the search of any sign of pain, dehydration, changing in behavior or loss of weight.
Briefly, tumor-bearing animals (with colorectal carcinomatosis) were injected at 0.5 mg/kg mTHPC intraperitoneally. Either at 4 h, 15 h, 24 h or 48 h mice were sacrificed to determine mTHPC accumulation in different organs: tumors, liver, spleen, kidney, intestine, peritoneum, skin and lung. First, organs were weighed and grinded in PBS (1 mL per 10 mg of organ). The amount of 0.8 mL of MeOH per 10 mg of organ was added to the solution and vortexed; then, 0.8 mL of chloroform was added. The solution was centrifuged at 1400 rpm for 10 minutes to allow the separation of the aqueous and chloroform phases. The bottom layer consisting of the chloroform and the solubilized mTHPC was transferred for spectroscopy measurements. Fluorescence emission spectra were obtained by a fluorescence spectrophotometer using 415 nm excitation wavelength.

[3] = tested on: colorectal peritoneal carcinomatosis (CT26); assay: Survival analysis after PDT in colorectal peritoneal carcinomatosis model; format: in vivo, mouse
Procedure: as §1, §2
Another 10 or 11 mice were selected from each group to evaluate the overall survival until 30 days. The end point was defined as mice death or the cachexia with the loss of 20% of the total weight that required the killing of the animal (as mentioned in the registration).

Oc1cccc(-c2c3nc(c(-c4cccc(O)c4)c4ccc([nH]4)c(-c4cccc(O)c4)c4nc(c(-c5cccc(O)c5)c5ccc2[nH]5)CC4)C=C3)c1 [mTHPC, 5,10,15,20-Tetrakis(3-hydroxyphenyl)chlorin]
CD8 detection in tumor ([1]; +laser): 1.88%±0.2 | CD31 expression (fluorescence signal) ([1]; +laser): 0.55·10^7±1.0·10^6 | TUNEL mean fluorescence per mm^2 of tumor (apoptosis) ([1]; +laser): 2.17±0.2 | anti CD3 labeling in tumor (T-lymphocyte infiltration) ([1]; +laser): 2.51%±0.3 | macrophage intra-tumor invasion (anti F4/80) ([1]; +laser): 41.45%±2.2 | mean Ki67-index ([1]; +laser): 26.2%±4.5 | proliferation index reduced by a factor of ([1]; photoactivated (+laser)): 2 | CD8 detection in tumor ([1]; without laser): 0.44%±0.07 | CD31 expression (fluorescence signal) ([1]; without laser): 1.06·10^7±1.4·10^6 | TUNEL mean fluorescence per mm^2 of tumor (apoptosis) ([1]; without laser): 0.86±0.4 | anti CD3 labeling in tumor (T-lymphocyte infiltration) ([1]; without laser): 0.33%±0.07 | macrophage intra-tumor invasion (anti F4/80) ([1]; without laser): 13.19%±1.4 | mean Ki67-index ([1]; without laser): 45.52±3.4% | mTHPC level in tumor tissue ([2]; 4 h after IP injection): 0.10±0.01 ng/mg tissue | mTHPC level in tumor tissue ([2]; 15 h after IP injection): 0.15±0.04 ng/mg tissue | mTHPC level in tumor tissue ([2]; 24 h after IP injection): 0.16±0.05 ng/mg tissue | mTHPC level in tumor tissue ([2]; 48 h after IP injection): 0.10±0.00 ng/mg tissue | tumor-to-organ ratio, total average ([2]; average over all time points): 2.5 | dead mice 4 days after laser illumination (lethal toxicity) ([3]; +laser, […]): 91% | histological analysis after PDT (liver, kidney) ([3]; non-vectorized PDT group): hepatic and kidney necrosis
